{
  "source": "ChEMBL document CHEMBL4251716",
  "about": "“Miuramides A and B, Trisoxazole Macrolides from a Mycale sp. Marine Sponge That Induce a Protrusion Phenotype in Cultured Mammalian Cells” (J Nat Prod, 2018)",
  "type_in_all_cases": "functional, cell-based",
  "key": {"3Y1 cell line [1]": {"test_system": "3Y1 cell line", "experiment": "Induction of morphological changes in rat 3Y1 cells assessed as protrusions in cell membrane at 0.05 uM measured after 5 mins to 48 hrs by IncuCyte live cell imaging method"}, "3Y1 cell line [2]": {"test_system": "3Y1 cell line", "experiment": "Induction of morphological changes in rat 3Y1 cells assessed as protrusions in cell membrane at 41 uM measured after 5 mins to 48 hrs by IncuCyte live cell imaging method"}, "3Y1 cell line [3]": {"test_system": "3Y1 cell line", "experiment": "Induction of morphological changes in rat 3Y1 cells assessed as protrusions in cell membrane at 2.7 uM measured after 5 mins to 48 hrs by IncuCyte live cell imaging method"}, "3Y1 cell line [4]": {"test_system": "3Y1 cell line", "experiment": "Induction of morphological changes in rat 3Y1 cells assessed as protrusions in cell membrane at 1.9 uM measured after 5 mins to 48 hrs by IncuCyte live cell imaging method"}, "3Y1 cell line [5]": {"test_system": "3Y1 cell line", "experiment": "Cytotoxicity against rat 3Y1 cells after 72 hrs by MTT assay", "details": "3Y1, 72 h"}, "3Y1 cell line [6]": {"test_system": "3Y1 cell line", "experiment": "Induction of morphological changes in rat 3Y1 cells assessed as protrusions in cell membrane at 4.2 uM measured after 5 mins by IncuCyte live cell imaging method"}},
  "note": "The source made the active and inactive calls. The rule behind the calls is not given here.",
  "data": [
    {"compound": "CO[C@H]1C[C@H](CC[C@H](C)[C@H](O)[C@H](C)[C@H]2OC(=O)/C(C)=C/C[C@H](O)C[C@@H]3C=CC[C@@H](C[C@H](OC)[C@@H](C)[C@@H](O)C[C@@H](O)[C@H](C)[C@@H]([C@@H](C)[C@@H](O)[C@@H](C)CC[C@H]4C[C@H](OC)C[C@H](C)O4)OC(=O)/C(C)=C/C[C@H](O)C[C@@H]4C=CC[C@@H](C[C@H](OC)[C@@H](C)[C@@H](O)C[C@@H](O)[C@@H]2C)O4)O3)O[C@@H](C)C1", "values": [
      {"measurement": "Activity", "setting": "3Y1 cell line [1]", "result": "Active"}
    ]},
    {"compound": "C=C1[C@@H](C)[C@H]2[C@H](Cc3ccccc3)NC(=O)[C@]23OC(=O)/C=C/[C@@H](O)CCC[C@@H](C)C/C=C/[C@H]3[C@@H]1O", "values": [
      {"measurement": "Activity", "setting": "3Y1 cell line [2]", "result": "Active"}
    ]},
    {"compound": "COC[C@@H](OC)C(=O)O[C@H](CC[C@H](C)[C@H](C[C@@H]1OC(=O)C[C@@H](O)C/C=C/C(=O)[C@H](C)[C@H](OC)c2coc(n2)-c2coc(n2)-c2coc(n2)/C=C/C[C@H](OC)[C@H]1C)OC)[C@H](C)[C@H](OC(C)=O)[C@H](C)/C=C/N(C)C=O", "values": [
      {"measurement": "Activity", "setting": "3Y1 cell line [3]", "result": "Active"}
    ]},
    {"compound": "C/C1=C/C(=O)O[C@@H]2C[C@@H](CC[C@H](C)/C=C\\C=C\\CC1)O[C@@](O)([C@@H]1CSC(=O)N1)C2", "values": [
      {"measurement": "Activity", "setting": "3Y1 cell line [4]", "result": "Active"}
    ]},
    {"compound": "CO[C@H]([C@H](C)/C=C/N(C)C=O)[C@@H](C)C(=O)CC[C@H](C)[C@H](C[C@@H]1OC(=O)C[C@@H](O)C/C=C/C(=O)[C@H](C)[C@H](OC)c2coc(n2)-c2coc(n2)-c2coc(n2)/C=C/C[C@H](OC)[C@H]1C)OC", "values": [
      {"measurement": "IC50", "setting": "3Y1 cell line [5]", "result": 7, "unit": "nM"}
    ]},
    {"compound": "CO[C@@H]([C@@H](C)[C@@H](CC[C@H](C)[C@H](C[C@@H]1OC(=O)C[C@@H](O)C/C=C/C(=O)[C@H](C)[C@H](OC)c2coc(n2)-c2coc(n2)-c2coc(n2)/C=C/C[C@H](OC)[C@H]1C)OC)OC(=O)[C@@H](C)OC)[C@H](C)/C=C/N(C)C=O", "values": [
      {"measurement": "IC50", "setting": "3Y1 cell line [5]", "result": 7, "unit": "nM"},
      {"measurement": "Activity", "setting": "3Y1 cell line [6]", "result": "Active"}
    ]}
  ]
}
